Experimental data taken from patent publication US20070128217A1 (priority 2003, published 2007).

Key:
[1] = system: control sera (pooled serum of ten healthy LUMC hospital workers; commercial negative donor pooled serum from the Dutch bloodbank); type: binding, human; parameters: Binding of Control serum LUMC to linear peptides / Binding of Control serum Blood-bank to linear peptides / Binding of Control serum LUMC to looped peptides / Binding of Control Serum Blood-Bank to Looped peptides / Binding of Control serum LUMC to linear peptides of the protein M of SARS-CoV Urbani / Binding of Control serum Blood-bank to linear peptides of the protein M of SARS-CoV Urbani / Binding of Control serum LUMC to looped peptides of the protein M of SARS-CoV Urbani / Binding of Control Serum Blood-Bank to Looped peptides of the protein M of SARS-CoV Urbani: unit not given here
[2] = system: rabbit serum obtained by immunizing a rabbit with the SARS-CoV strain Frankfurt 1; type: binding; parameters: Binding of a rabbit serum to linear peptides / Binding of a rabbit serum to looped peptides / Rabbit serum linear peptides / Rabbit serum looped peptides / Binding of a rabbit serum to linear peptides of protein N of SARS-CoV Urbani (Rabbit serum linear peptides) / Binding of a rabbit serum to looped/cyclic peptides of protein N of SARS-CoV Urbani (Rabbit serum looped peptides): unit not given here
[3] = system: antibodies in sera from SARS patients (sera 1a, 1b, 2, 6, 37, 62, London, SARS-yellow, SARS-green); type: binding, human; parameters: Binding of serum 6 to linear peptides of protein X1 of SARS-CoV Urbani / Binding of serum 37 to linear peptides of protein X1 of SARS-CoV Urbani / Binding of serum 6 to looped/cyclic peptide (PEPSCAN-ELISA) / Binding of serum 37 to looped/cyclic peptide (PEPSCAN-ELISA) / Binding of serum 37 to looped/cyclic peptides of protein X1 of SARS-CoV Urbani / Binding of serum 6 to linear peptides of protein X2 / Binding of serum 37 to linear peptides of protein X2 / Binding of serum 37 to looped/cyclic peptides of protein X2 of SARS-CoV Urbani / Binding of serum 6 to linear peptides of protein M of SARS-CoV Urbani / Binding of serum 37 to linear peptides of protein M of SARS-CoV Urbani / Binding of serum 6 to looped/cyclic peptides of protein M of SARS-CoV Urbani / Binding of serum 37 to looped/cyclic peptides of protein M of SARS-CoV Urbani / Binding of serum 6 to linear peptides of protein X3 of SARS-CoV Urbani / Binding of serum 37 to linear peptides of protein X3 of SARS-CoV Urbani / Binding of serum 37 to looped/cyclic peptides of protein X3 of SARS-CoV Urbani / Binding of serum 6 to linear peptides of protein X4 of SARS-CoV Urbani / Binding of serum 37 to linear peptides of protein X4 of SARS-CoV Urbani / Binding of serum 37 to looped/cyclic peptides of protein X4 of SARS-CoV Urbani / Binding of serum 6 to linear peptides of protein X5 of SARS-CoV Urbani / Binding of serum 37 to linear peptides of protein X5 of SARS-CoV Urbani / Binding of serum 37 to looped/cyclic peptides of protein X5 of SARS-CoV Urbani / Binding of serum 6 to linear peptides of protein N of SARS-CoV Urbani / Binding of serum 37 to linear peptides of protein N of SARS-CoV Urbani / Binding of serum 6 to linear peptide (PEPSCAN-ELISA) / Binding of serum 1a to looped/cyclic peptides of protein N of SARS-CoV Urbani / Binding of serum 1b to looped/cyclic peptides of protein N of SARS-CoV Urbani / Binding of serum 2 to looped/cyclic peptides of protein N of SARS-CoV Urbani / Binding of serum 6 to looped/cyclic peptides of protein N of SARS-CoV Urbani / Binding of serum 37 to looped/cyclic peptides of protein N of SARS-CoV Urbani / Binding of serum 62 to looped/cyclic peptides of protein N of SARS-CoV Urbani / Binding of serum London to looped/cyclic peptides of protein N of SARS-CoV Urbani / Binding of serum SARS-green to looped/cyclic peptides of protein N of SARS-CoV Urbani: unit not given here

ELYSPLFLIVAALVF
0.5: Binding of Control serum Blood-bank to linear peptides [1] | Rabbit serum looped peptides [2] | Binding of serum London to linear peptides of protein X4 of SARS-CoV Urbani [3] | Binding of serum SARS-green to linear peptides of protein X4 of SARS-CoV Urbani [3] | Binding of serum SARS-green to looped/cyclic peptides of protein X4 of SARS-CoV Urbani [3]
0.7: Binding of Control Serum Blood-Bank to Looped peptides [1] | Binding of Control serum LUMC to looped peptides [1] | Binding of serum 1a to linear peptides of protein X4 of SARS-CoV Urbani [3]
0.6: Binding of serum 1a to looped/cyclic peptides of protein X4 of SARS-CoV Urbani [3] | Binding of serum 2 to looped/cyclic peptides of protein X4 of SARS-CoV Urbani [3] | Binding of serum 37 to linear peptides of protein X4 of SARS-CoV Urbani [3] | Binding of serum 37 to looped/cyclic peptides of protein X4 of SARS-CoV Urbani [3] | Binding of serum 62 to linear peptides of protein X4 of SARS-CoV Urbani [3] | Binding of serum 62 to looped/cyclic peptides of protein X4 of SARS-CoV Urbani [3] | Binding of serum SARS-yellow to looped/cyclic peptides of protein X4 of SARS-CoV Urbani [3]
0.3: Binding of Control serum LUMC to linear peptides [1]
0.2: Binding of serum London to looped/cyclic peptides of protein X4 of SARS-CoV Urbani [3] | Binding of serum SARS-yellow to linear peptides of protein X4 of SARS-CoV Urbani [3]
0.4: Rabbit serum linear peptides [2] | Binding of serum 1b to linear peptides of protein X4 of SARS-CoV Urbani [3] | Binding of serum 1b to looped/cyclic peptides of protein X4 of SARS-CoV Urbani [3] | Binding of serum 2 to linear peptides of protein X4 of SARS-CoV Urbani [3] | Binding of serum 6 to linear peptides of protein X4 of SARS-CoV Urbani [3] | Binding of serum 6 to looped/cyclic peptides of protein X4 of SARS-CoV Urbani [3]

EPCPSGTYEGNSPFH
0.6: Binding of Control Serum Blood-Bank to Looped peptides [1] | Binding of Control serum Blood-bank to linear peptides [1] | Rabbit serum linear peptides [2] | Binding of serum 1b to looped/cyclic peptides of protein X4 of SARS-CoV Urbani [3] | Binding of serum 6 to looped/cyclic peptides of protein X4 of SARS-CoV Urbani [3] | Binding of serum 37 to linear peptides of protein X4 of SARS-CoV Urbani [3] | Binding of serum 62 to looped/cyclic peptides of protein X4 of SARS-CoV Urbani [3] | Binding of serum SARS-green to linear peptides of protein X4 of SARS-CoV Urbani [3]
0.8: Binding of Control serum LUMC to looped peptides [1] | Binding of serum 1a to looped/cyclic peptides of protein X4 of SARS-CoV Urbani [3]
0.4: Rabbit serum looped peptides [2] | Binding of serum 2 to linear peptides of protein X4 of SARS-CoV Urbani [3] | Binding of serum London to looped/cyclic peptides of protein X4 of SARS-CoV Urbani [3]
0.7: Binding of serum 1a to linear peptides of protein X4 of SARS-CoV Urbani [3] | Binding of serum 2 to looped/cyclic peptides of protein X4 of SARS-CoV Urbani [3] | Binding of serum 37 to looped/cyclic peptides of protein X4 of SARS-CoV Urbani [3] | Binding of serum 62 to linear peptides of protein X4 of SARS-CoV Urbani [3] | Binding of serum London to linear peptides of protein X4 of SARS-CoV Urbani [3]
0.5: Binding of Control serum LUMC to linear peptides [1] | Binding of serum 1b to linear peptides of protein X4 of SARS-CoV Urbani [3] | Binding of serum 6 to linear peptides of protein X4 of SARS-CoV Urbani [3] | Binding of serum SARS-green to looped/cyclic peptides of protein X4 of SARS-CoV Urbani [3] | Binding of serum SARS-yellow to looped/cyclic peptides of protein X4 of SARS-CoV Urbani [3]
0.9: Binding of serum SARS-yellow to linear peptides of protein X4 of SARS-CoV Urbani [3]

ETNILLNVPLRGTIV
0.9: Binding of Control serum LUMC to looped peptides of the protein M of SARS-CoV Urbani [1]
0.4: Binding of serum 6 to linear peptides of protein M of SARS-CoV Urbani [3] | Binding of serum 37 to looped/cyclic peptides of protein M of SARS-CoV Urbani [3] | Binding of serum London to linear peptides of protein M of SARS-CoV Urbani [3]
0.8: Binding of serum 6 to looped/cyclic peptides of protein M of SARS-CoV Urbani [3]
0.0: Rabbit serum looped peptides [2]
0.7: Binding of Control serum Blood-bank to linear peptides of the protein M of SARS-CoV Urbani [1] | Binding of serum 1a to linear peptides of protein M of SARS-CoV Urbani [3] | Binding of serum 2 to looped/cyclic peptides of protein M of SARS-CoV Urbani [3] | Binding of serum 62 to linear peptides of protein M of SARS-CoV Urbani [3]
0.1: Binding of serum SARS-yellow to linear peptides of protein M of SARS-CoV Urbani [3]
0.3: Binding of Control serum LUMC to linear peptides of the protein M of SARS-CoV Urbani [1] | Binding of serum SARS-green to linear peptides of protein M of SARS-CoV Urbani [3]
0.5: Rabbit serum linear peptides [2] | Binding of serum 1a to looped/cyclic peptides of protein M of SARS-CoV Urbani [3] | Binding of serum 1b to linear peptides of protein M of SARS-CoV Urbani [3] | Binding of serum 2 to linear peptides of protein M of SARS-CoV Urbani [3] | Binding of serum 62 to looped/cyclic peptides of protein M of SARS-CoV Urbani [3] | Binding of serum SARS-yellow to looped/cyclic peptides of protein M of SARS-CoV Urbani [3]
0.6: Binding of serum 1b to looped/cyclic peptides of protein M of SARS-CoV Urbani [3] | Binding of serum 37 to linear peptides of protein M of SARS-CoV Urbani [3]
0.2: Binding of serum London to looped/cyclic peptides of protein M of SARS-CoV Urbani [3] | Binding of serum SARS-green to looped/cyclic peptides of protein M of SARS-CoV Urbani [3]
1.0: Binding of Control Serum Blood-Bank to Looped peptides of the protein M of SARS-CoV Urbani [1]

EVYYQLESTQITTDT
0.4: Binding of Control serum Blood-bank to linear peptides [1] | Binding of Control serum LUMC to linear peptides [1] | Binding of Control serum LUMC to looped peptides [1] | Binding of a rabbit serum to looped peptides [2] | Binding of serum 1b to looped/cyclic peptides of protein X1 of SARS-CoV Urbani [3] | Binding of serum 2 to linear peptides of protein X1 of SARS-CoV Urbani [3] | Binding of serum 62 to linear peptides of protein X1 of SARS-CoV Urbani [3]
0.3: Binding of serum London to linear peptides of protein X1 of SARS-CoV Urbani [3] | Binding of serum SARS-green to looped/cyclic peptides of protein X1 of SARS-CoV Urbani [3] | Binding of serum SARS-yellow to linear peptides of protein X1 of SARS-CoV Urbani [3] | Binding of serum SARS-yellow to looped/cyclic peptides of protein X1 of SARS-CoV Urbani [3]
0.6: Binding of serum 1b to linear peptides of protein X1 of SARS-CoV Urbani [3]
0.7: Binding of serum 1a to linear peptides of protein X1 of SARS-CoV Urbani [3] | Binding of serum 37 to linear peptides of protein X1 of SARS-CoV Urbani [3]
0.1: Binding of a rabbit serum to linear peptides [2] | Binding of serum 2 to looped/cyclic peptides of protein X1 of SARS-CoV Urbani [3]
0.5: Binding of Control Serum Blood-Bank to Looped peptides [1] | Binding of serum 1a to looped/cyclic peptides of protein X1 of SARS-CoV Urbani [3] | Binding of serum 6 to linear peptides of protein X1 of SARS-CoV Urbani [3] | Binding of serum 37 to looped/cyclic peptides of protein X1 of SARS-CoV Urbani [3] | Binding of serum 62 to looped/cyclic peptides of protein X1 of SARS-CoV Urbani [3]
0.2: Binding of serum 6 to looped/cyclic peptides of protein X1 of SARS-CoV Urbani [3] | Binding of serum London to looped/cyclic peptides of protein X1 of SARS-CoV Urbani [3] | Binding of serum SARS-green to linear peptides of protein X1 of SARS-CoV Urbani [3]
